{
  "source": "patent US20250262206A1",
  "about": "“USE OF TACHYKININ RECEPTOR 3 INHIBITÓR” (WUHAN UNIVERSITY, priority 2021, published 2025)",
  "key": {"[1]": {"tested_on": "hot flashes in postmenopausal women", "conditions": "Phase 2 clinical trials; cited from earlier work"}, "[2]": {"tested_on": "C57BL/6J-APCMin/+ mice", "experiment": "Kidney damage caused by intestinal adenoma in C57BL/6J-APCMin/+ mice", "assay_type": "in vivo, mouse", "conditions": "10 mg/kg/day intraperitoneal, 9 days", "protocol": "C57BL/6J-APCMin/+ mice are a mature mammalian intestinal adenoma model and are commonly used to study host consumption caused by tumors.\nMethods: Male mice of C57BL/6J in the control group and C57BL/6J-APCMin/+ in the experimental group (7 mice in each group) were fed to 16 weeks of age under normal feeding conditions. When the mice in the experimental group began to lose weight, they were injected intraperitoneally with Fezolinetant (0, 10 mg/kg/day) for 9 consecutive days, and the body weight and urine output were measured, and the kidneys were stained to observe the tubular morphology."}, "[3]": {"tested_on": "Yki activated Drosophila (intestinal tumors)", "experiment": "Drosophila ascites caused by yki intestinal tumors", "assay_type": "in vivo", "conditions": "100 μM in food, yki intestinal tumor Drosophila, 6 days / 8 days", "description": "Overexpression of the activated proto-oncogene yki in Drosophila intestinal stem cells can lead to malignant proliferation of intestinal stem cells, and then the formation of tumors. The formation of tumors seriously damages the secretory function of Drosophila Malpighian tubules, leading to the inability of circulating water in the Drosophila hemolymph to be drained out of the body, and the emergence of a severe ascites phenotype. Methods: Activated yki tumors (genotypes esg-Gal4, UAS-GFP, tub-Gal80TS/+; UAS-yki3SA/+) were induced in the Drosophila intestine by initiating gene expression at 29° C. Drosophilas were fed with food supplemented with DMSO, Fezolinetant (10 μM, 100 μM), and Pavinetant (10 μM, 100 μM), […], and compared with the control group (esg-Gal4, UAS-GFP, tub-Gal80TS/+), to observe phenotypes, detect intestinal tumor growth and systemic glycolipid changes, and count ascites ratios."}, "[4]": {"tested_on": "MFC tumor mice (C57BL/6J)", "experiment": "Ascites and kidney damage caused by MFC forestomach cancer cells in mice", "assay_type": "in vivo, mouse", "conditions": "50 mg/kg/day intraperitoneal, 5 days", "protocol": "MFC tumor (Mouse forestomach carcinoma), a common tumor that may cause ascites, colonizes the peritoneal cavity of mice. With their growth, the tumors may cause severe ascites accumulation and renal tubular damage in mice. Methods: C57BL/6J male mice, 4-6 weeks old. C57BL/6J mice in experimental group (6 mice in each group) were intraperitoneally injected with 1.5×10^7 MFC tumor cells, and 24 hours later, intraperitoneally injected with the inhibitor Pavinetant (0, 10, 50 mg/kg/day), and after 5 days of continuous administration, they were compared with the control group C57BL/6 (6 mice in each group). The body weight, ascites, and urine output were detected, and the kidneys were stained to observe the tubular morphology."}, "[5]": {"molecular_target": "cytochrome P450-3A4 (Homo sapiens, UniProt P08684)", "sequence (P08684 whole entry)": "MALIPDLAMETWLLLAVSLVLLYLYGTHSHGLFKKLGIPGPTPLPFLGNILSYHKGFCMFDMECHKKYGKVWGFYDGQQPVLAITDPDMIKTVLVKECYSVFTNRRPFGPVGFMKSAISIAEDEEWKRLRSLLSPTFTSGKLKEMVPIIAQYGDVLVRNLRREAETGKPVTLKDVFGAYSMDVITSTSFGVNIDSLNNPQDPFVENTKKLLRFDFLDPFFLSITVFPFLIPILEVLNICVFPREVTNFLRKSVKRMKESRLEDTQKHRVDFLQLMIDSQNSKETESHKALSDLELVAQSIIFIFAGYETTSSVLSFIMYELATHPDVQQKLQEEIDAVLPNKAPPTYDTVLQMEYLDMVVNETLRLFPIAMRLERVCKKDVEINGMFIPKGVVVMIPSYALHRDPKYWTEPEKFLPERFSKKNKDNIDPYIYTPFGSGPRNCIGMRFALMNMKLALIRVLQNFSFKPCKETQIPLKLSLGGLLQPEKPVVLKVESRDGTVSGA", "conditions": "cited from earlier work"}, "[6]": {"tested_on": "polycystic ovary syndrome", "conditions": "Phase 2 clinical trials; cited from earlier work"}},
  "note": "Where two headings read alike, the source gives them in different places.",
  "data": [
    {"smiles": "Cc1nsc(-c2nnc3n2CCN(C(=O)c2ccc(F)cc2)[C@@H]3C)n1", "note": "[Fezolinetant]", "values": [
      {"measurement": "effect on hot flashes", "setting": "[1]", "result": "significant improvement effect"},
      {"measurement": "renal tubular damage (HE staining, tubular dilatation)", "setting": "[2]", "result": "significantly restored"},
      {"measurement": "urine output", "setting": "[2]", "result": "significantly restored"},
      {"measurement": "ascites in Drosophila", "setting": "[3]", "result": "significantly reduce"},
      {"measurement": "blood glucose in Drosophila", "setting": "[3]", "result": "normalize"}
    ]},
    {"smiles": "CC[C@H](NC(=O)c1c(NS(C)(=O)=O)c(-c2ccccc2)nc2ccccc12)c1ccccc1", "note": "[Pavinetant]", "values": [
      {"measurement": "generation of ascites", "setting": "[4]", "result": "significantly inhibit"},
      {"measurement": "renal tubular lesions (renal tubular dilation)", "setting": "[4]", "result": "alleviate"},
      {"measurement": "IC50", "setting": "[5]; midazolam, read-out: in vitro inhibitory IC50, cytochrome P450-3A4 enzyme activity, midazolam testing", "result": 7.1, "unit": "µM"},
      {"measurement": "IC50", "setting": "[5]; testosterone, read-out: in vitro inhibitory IC50, cytochrome P450-3A4 enzyme activity, testosterone testing", "result": 19.8, "unit": "µM"},
      {"measurement": "effect on hot flashes", "setting": "[1]", "result": "significantly improves"},
      {"measurement": "ascites in Drosophila", "setting": "[3]", "result": "significantly reduce"},
      {"measurement": "blood glucose in Drosophila", "setting": "[3]", "result": "normalize"},
      {"measurement": "effect on polycystic ovary syndrome", "setting": "[6]", "result": "significantly improves"}
    ]}
  ]
}
